Key:
Format in all cases: cell-based, human
MDA-MB-231 [1] = assay: Cell death assay; settings: MDA-MB-231, IC50 concentration, 24 h, Annexin V/PI
MDA-MB-468 = assay: PrestoBlue cell viability assay, MDA-MB-468; settings: MDA-MB-468, 24 h incubation
HCC-1806 [2] = assay: PrestoBlue cell viability assay, HCC-1806; settings: for IC50: HCC-1806, 24 h incubation, PrestoBlue
HCC-1806 [3] = assay: Cell invasion, 3D Transwell assay with Geltrex matrix, HCC-1806; settings: 24 h
MDA-MB-231 [4] = assay: PrestoBlue cell viability assay, MDA-MB-231; settings: for IC50: MDA-MB-231, 24 h incubation, PrestoBlue
MDA-MB-231 [5] = assay: Cell invasion, 3D Transwell assay with Geltrex matrix, MDA-MB-231; settings: MDA-MB-231, IC20 concentration, 24 h
MDA-MB-231 [6] = assay: Cell cycle profile; settings: MDA-MB-231, IC20 concentration, 24 h; non-treated cells 16%
HUVEC [7] = assay: IC10 concentration in HUVEC cells
HUVEC [8] = assay: Endothelial tube formation assay; settings: IC10 concentration
HCC-1806 [9] = assay: Cell death assay; settings: HCC-1806, IC50 concentration, 24 h, Annexin V/PI
IMR90 = assay: PrestoBlue cell viability assay, lung fibroblasts IMR90; settings: IMR90, 24 h incubation
HCC-1806 [10] = assay: Cell migration, 2D wound-healing scratch assay, HCC-1806; settings: 24 h
MCF10a = assay: PrestoBlue cell viability assay, non-malignant breast cells MCF10a; settings: 24 h incubation

For Cc1ccc(C(C)C)cc1.[Cl][Ru]([Cl])[PH]12CN3CN(CN(C3)C1)C2 [RAPTA-C, [Ru(η^6-p-cymene)Cl2(1,3,5-triaza-7-phosphaadamantane])], the “cells that die by apoptosis” value (MDA-MB-231 [1]) was 30.8%, the IC50 (MDA-MB-468) was greater than 300 µM and the IC50 (HCC-1806 [2]) was greater than 300 µM. The IC20 (HCC-1806 [2]; read-out: IC20 values employed, HCC-1806 (same value for both cell lines)) was 250 µM, the invasion reduction (HCC-1806 [3]; HCC-1806, IC20 concentration) was 41.2% and the “reduction of the antiinvasive properties in HCC-1806 with respect to MDA-MB-231” value (HCC-1806 [3]; IC20 concentration) was 25.7%. The IC50 (MDA-MB-231 [4]) was greater than 300 µM, the IC20 (MDA-MB-231 [4]; read-out: IC20 values employed, MDA-MB-231 (same value for both cell lines)) was 250 µM and the invasion reduction (MDA-MB-231 [5]) was 66.9%. The “cells in G2/M arrest” value (MDA-MB-231 [6]) was 23%, the IC10 concentration (HUVEC [7]) was 150 µM and the “disruption in tube length (TL)” value (HUVEC [8]) was 22%. The “disruption of tube length (first statement)” value (HUVEC [8]) was 27%, the apoptosis (HCC-1806 [9]) was 27.25% and the IC50 (IMR90) was greater than 300 µM. For the same compound, the reduction of migration (HCC-1806 [10]; HCC-1806, IC20 concentration) was 42.7%, the “decrease in antimigratory properties in HCC-1806 with respect to MDA-MB-231” value (HCC-1806 [10]; IC20 concentration) was “ca. 17.6%” and the IC50 (MCF10a) was greater than 300 µM.

In the case of N.N.[Cl][Pt][Cl] [cisplatin], the IC50 (MDA-MB-468) is reported as 44.2 ± 2.1 µM, the IC50 (HCC-1806 [2]) is reported as 163 ± 5.86 µM and the IC50 (MDA-MB-231 [4]) is reported as 132 ± 18 µM. For the same compound, the IC50 (IMR90) was 149 ± 13.1 µM and the IC50 (MCF10a) was 32.9 ± 6.68 µM.

Reference: publication PMC8571052 (ChemMedChem, 2021)
